In patent US11566017B2, “Dihydroquinazolinone compound or pharmacologically acceptable salt, and cell growth inhibitor” (RIKEN, priority 2017, dated 2023):

Legend:
tankyrase 2 (TNKS2) = target: T1, tankyrase 2 (TNKS2) (Homo sapiens, UniProt Q9H2K2); assay: Tankyrase inhibitory activity test (ELISA, auto-poly(ADP-ribosyl)ation), tankyrase 2; assay type: biochemical; details: Flag tagged tankyrase 2 (613-1,116aa, ANK5+SAM+PARP); read-out: TNKS2 (inhibitory activity against tankyrase 2, IC50)
T1 construct: tankyrase 2 (613-1,116aa, ANK5+SAM+PARP); made in house; host or cells: cell-free protein expression system
Method: (§1) The enzymatic activity of tankyrase 1 and the enzymatic activity of tankyrase 2 were measured by the ELISA method based on assessment of auto-poly(ADP-ribosyl)ation to evaluate the tankyrase inhibitory activity of the compound prepared in each of Examples (test compound) (inhibitory activity against tankyrase 1 (TNKS1) and inhibitory activity against tankyrase 2 (TNKS2)). First, Flag tagged tankyrase 1 (1,024-1,327aa, SAM+PARP) and tankyrase 2 (613-1,116aa, ANK5+SAM+PARP) were synthesized with a cell-free protein expression system, and diluted with a Tris buffer solution (50 mM Tris-HCl (pH 8.0), 150 mM NaCl, 10% glycerol). 50 μL of the diluted tankyrase 1 or tankyrase 2 was added to a plate with an anti-FLAG M2 monoclonal antibody immobilized thereon (Anti-FLAG High-Sensitivity M2-Coated Plate) (Sigma-Aldrich), and the plate was left standing overnight at 4° C. Thereafter, the plate was washed four times with a PBS (PBST) buffer containing 0.1% Triton X-100. For Example 84, the Anti-FLAG High-Sensitivity M2-Coated Plate was replaced by an immunoplate (Thermo Fisher Scientific), tankyrase 1 or tankyrase 2 was immobilized on the immunoplate, and the immunoplate was then blocked with Blocking One (nacalai tesque), then washed with a PBS (PBST) buffer, and used as the following plate.
(§2) Subsequently, the test compound diluted with an assay buffer (50 mM Tris-HCl (pH 8.0), 4 mM MgCl2, 0.2 mM DTT) (DMSO was used as a control) was added to each well of the plate, and the plate was left standing at room temperature for 10 minutes. Thereafter, a biotin-labeled NAD solution (225 μM NAD, 25 μM 6-Biotin-17-NAD (Travigen, Inc.)) was added and mixed as a donor substrate, and the mixture was reacted at 30° C. for 45 minutes. To blank wells was added distilled water instead of the biotin-labeled NAD solution. After the reaction, the plate was washed with a PBST buffer four times. Thereafter, HRP (horseradish peroxidase)-labeled streptavidin (Travigen, Inc.) was diluted with a PBS buffer by 1,000 times, and added to each well, and the mixture was reacted at room temperature for 20 minutes. The plate was washed with a PBST buffer four times, a chemiluminescent substrate solution TACS-Sapphire (Travigen, Inc.) was then added to each well, the mixture was reacted at room temperature for 20 minutes, and the chemiluminescence intensity was measured using a chemiluminescence measuring apparatus. For Example 84, the streptavidin was diluted by 5,000 times, the chemiluminescent substrate solution TACS-Sapphire was replaced by an ELISA POD substrate TMB solution easy (nacalai tesque), the mixture was reacted at room temperature for 30 minutes, and the chemiluminescence intensity was measured using a chemiluminescence measuring apparatus.
(§3) The residual enzymatic activity in the presence of the test compound was determined from the following expression. On the basis of the residual enzymatic activity at each of multiple concentrations of the test compound, the enzyme inhibitory activity was calculated in terms of a 50%-inhibition concentration (IC50 value) using data analysis software Origin (LightStone Corp.). Residual activity (%)={(chemiluminescence intensity with test compound added)−(chemiluminescence intensity of blank)}/{(chemiluminescence intensity of control)−(chemiluminescence intensity of blank)}

[1] = tested on: human colorectal cancer cell line COLO-320DM; assay: Cell proliferation inhibitory activity test (Celltiter-Glo); assay type: cell-based; details: COLO-320DM cells, 96 hours
Method: The cell proliferation inhibitory activity of the compound, which had been prepared in each of Examples, against the human colorectal cancer cell line COLO-320DM was evaluated by Celltiter-Glo Luminescent Cell Viability Assay (Promega Corporation; G7573). COLO-320DM cells were cultured in RPMI-1640 medium containing 2 mM glutamine (Wako Pure Chemical Industries, Ltd; 189-02025) supplemented with 10% fetal bovine serum. The cultured cells were washed with PBS, and then dissociated with trypsin/EDTA, and a cell solution with 3×10^4 cells/mL was prepared.
Subsequently, the cell solution was seeded in a 96-well microplate (Thermo/Nunc Company; 136101) in an amount of 70 μL per well, and cultured overnight under the condition of 37° C. and 5% CO2. Next day, a test compound solution obtained by diluting the test compound (DMSO solution) with a cell culture medium (final concentration of DMSO was 1%) was added in an amount of 10 μL per well, and the mixture was reacted under the condition of 37° C. and 5% CO2 for 96 hours (a 1% DMSO solution was used as a control). Thereafter, a Celltiter-GloLuminescent Cell Viability Assay reagent (Promega Corporation; G7573) was added in an amount of 80 μL per well, the mixture was stirred with a shaker for 2 minutes while light was blocked with an aluminum foil, and the mixture was incubated at room temperature for 10 minutes.
Thereafter, a luminescence signal was measured with a luminometer (Biotech Company; Synergy). The ratio of cell proliferation in each compound addition group to cell proliferation in a control group containing no test compound solution, where cell proliferation in the control group is 100%, was calculated and the value of a compound concentration necessary for suppressing the amount of residual cells to 50% of that in the control (GI50) was calculated as the cytostatic activity. […] An unevaluated test compound was designated as “NT”.

tankyrase 1 (TNKS1) = target: T2, tankyrase 1 (TNKS1) (Homo sapiens, UniProt O95271); assay: Tankyrase inhibitory activity test (ELISA, auto-poly(ADP-ribosyl)ation), tankyrase 1; assay type: biochemical; details: Flag tagged tankyrase 1 (1,024-1,327aa, SAM+PARP); read-out: TNKS1 (inhibitory activity against tankyrase 1, IC50)
T2 construct: tankyrase 1 (1,024-1,327aa, SAM+PARP); made in house; host or cells: cell-free protein expression system
Method: as §1, §2, §3

T2 sequence (O95271 1024-1327): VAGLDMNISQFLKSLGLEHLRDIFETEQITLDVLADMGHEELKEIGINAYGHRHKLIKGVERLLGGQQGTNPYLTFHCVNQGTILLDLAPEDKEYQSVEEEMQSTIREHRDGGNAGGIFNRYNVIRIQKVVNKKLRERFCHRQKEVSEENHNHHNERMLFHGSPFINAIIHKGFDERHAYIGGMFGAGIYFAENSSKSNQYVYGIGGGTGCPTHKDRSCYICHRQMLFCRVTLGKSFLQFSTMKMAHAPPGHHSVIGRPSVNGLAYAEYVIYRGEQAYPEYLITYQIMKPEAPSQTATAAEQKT

SMILES	IC50 (tankyrase 2 (TNKS2)) [nM]	GI50 [1] [µM]	IC50 (tankyrase 1 (TNKS1)) [nM]
CN1c2ccccc2C(=O)NC1c1c[nH]nc1-c1ccc(OCc2ccccc2)c(F)c1 (stereo not drawn) [Example 45, 2-[3-(3-Fluoro-4-phenylmethoxyphenyl)-1H-pyrazol-4-yl]-1-methyl-2,3-dihydroquinazolin-4-one]	< 5	1 to 10	< 5
CCOc1ccc(-c2n[nH]cc2C2NC(=O)c3ccccc3N2C)cc1 (stereo not drawn) [Example 46, 2-[5-(4-Ethoxyphenyl)-1H-pyrazol-4-yl]-1-methyl-2,3-dihydroquinazolin-4-one]	< 5	1 to 10	< 5
CN1c2ccccc2C(=O)NC1c1c[nH]nc1-c1cc(F)cc(F)c1 (stereo not drawn) [Example 47, 2-[3-(3,5-Difluorophenyl)-1H-pyrazol-4-yl]-1-methyl-2,3-dihydroquinazolin-4-one]	5 to 20	≥ 10	20 to 50
CN1c2ccccc2C(=O)NC1c1c[nH]nc1-c1ccc(OC(F)(F)F)cc1 (stereo not drawn) [Example 48, 1-Methyl-2-[3-(4-(trifluoromethoxy)phenyl)-1H-pyrazol-4-yl]-2,3-dihydroquinazolin-4-one]	5 to 20	1 to 10	20 to 50
COc1c(F)cc(-c2n[nH]cc2C2NC(=O)c3ccccc3N2C)cc1F (stereo not drawn) [Example 49, 2-[5-(3,5-Difluoro-4-methoxyphenyl)-1H-pyrazol-4-yl]-1-methyl-2,3-dihydroquinazolin-4-one]	5 to 20	≥ 10	20 to 50
COc1ccc(-c2[nH]ncc2C2NC(=O)c3cccc(C)c3N2)cc1 (stereo not drawn) [Example 50, 2-[5-(4-Methoxyphenyl)-1H-pyrazol-4-yl]-8-methyl-2,3-dihydro-1H-quinazolin-4-one]	5 to 20	≥ 10	5 to 20
Cc1cccc2c1NC(c1cn[nH]c1-c1ccc(-c3ccc(N4CCN(C)CC4)cc3)cc1)NC2=O (stereo not drawn) [Example 51, 8-Methyl-2-[5-[4-[4-(4-methylpiperazin-1-yl)phenyl]phenyl]-1H-pyrazol-4-yl]-2,3-dihydro-1H-quinazolin-4-one]	20 to 50	1 to 10	20 to 50
COc1ccc(-c2n[nH]cc2C2NC(=O)c3cccc4c3N2CC4)cc1 (stereo not drawn) [Example 52, 11-[5-(4-Methoxyphenyl)-1H-pyrazol-4-yl]-1,10-diazatricyclo[6.3.1.0^4,12]dodeca-4(12),5,7-trien-9-one]	5 to 20	≥ 10	< 5
COc1ccc(-c2n[nH]cc2C2NC(=O)c3ccc(C)cc3N2C)cc1 (stereo not drawn) [Example 53, 2-[5-(4-Methoxyphenyl)-1H-pyrazol-4-yl]-1,7-dimethyl-2,3-dihydroquinazolin-4-one]	5 to 20	≥ 10	5 to 20
Cc1cccc2c1NC(c1c[nH]nc1-c1ccc(OCC(F)(F)F)cc1)NC2=O (stereo not drawn) [Example 54, 8-Methyl-2-[3-(4-(2,2,2-trifluoroethoxy)phenyl)-1H-pyrazol-4-yl]-2,3-dihydro-1H-quinazolin-4-one]	< 5	1 to 10	5 to 20
CCOc1ccc(-c2n[nH]cc2C2NC(=O)c3cccc(C)c3N2)cc1 (stereo not drawn) [Example 55, 2-[5-(4-Ethoxyphenyl)-1H-pyrazol-4-yl]-8-methyl-2,3-dihydro-1H-quinazolin-4-one]	< 5	1 to 10	5 to 20
COc1ccc(-c2n[nH]cc2C2NC(=O)c3cccc(C)c3N2)cc1F (stereo not drawn) [Example 56, 2-[5-(3-Fluoro-4-methoxyphenyl)-1H-pyrazol-4-yl]-8-methyl-2,3-dihydro-1H-quinazolin-4-one]	5 to 20	≥ 10	5 to 20
CCc1cccc2c1NC(c1c[nH]nc1-c1ccc(OC)cc1)NC2=O (stereo not drawn) [Example 57, 8-Ethyl-2-[3-(4-methoxyphenyl)-1H-pyrazol-4-yl]-2,3-dihydro-1H-quinazolin-4-one]	< 5	1 to 10	5 to 20
COc1ccc(-c2n[nH]nc2C2NC(=O)c3ccccc3N2C)cc1 (stereo not drawn) [Example 58, 2-[5-(4-Methoxyphenyl)-2H-1,2,3-triazol-4-yl]-1-methyl-2,3-dihydroquinazolin-4-one]	< 5	1 to 10	5 to 20
COc1ccc(-c2n[nH]nc2C2NC(=O)c3ccccc3N2)cc1 (stereo not drawn) [Example 59, 2-[5-(4-Methoxyphenyl)-2H-1,2,3-triazol-4-yl]-2,3-dihydro-1H-quinazolin-4-one]	< 5	1 to 10	20 to 50
CN1c2ccccc2C(=O)NC1c1n[nH]nc1-c1ccc(Br)cc1 (stereo not drawn) [Example 60, 2-[4-(4-Bromophenyl)-2H-1,2,3-triazol-5-yl]-1-methyl-2,3-dihydroquinazolin-4-one]	5 to 20	1 to 10	5 to 20
CN1CCN(c2ccc(-c3cccc(-c4n[nH]nc4C4NC(=O)c5ccccc5N4C)c3)cc2)CC1 (stereo not drawn) [Example 61, 1-Methyl-2-[5-[3-[4-(4-methylpiperazin-1-yl)phenyl]phenyl]-2H-1,2,3-triazol-4-yl]-2,3-dihydroquinazolin-4-one]	5 to 20	≥ 10	5 to 20
CN1c2ccccc2C(=O)NC1c1n[nH]nc1-c1cccc(-c2ccc(N3CCOCC3)cc2)c1 (stereo not drawn) [Example 62, 1-Methyl-2-[4-[3-(4-morpholin-4-ylphenyl)phenyl]-2H-1,2,3-triazol-5-yl]-2,3-dihydroquinazolin-4-one]	5 to 20	≥ 10	5 to 20
CCOc1ccc(-c2n[nH]nc2C2NC(=O)c3ccccc3N2C)cc1 (stereo not drawn) [Example 63, 2-[5-(4-Ethoxyphenyl)-2H-1,2,3-triazol-4-yl]-1-methyl-2,3-dihydroquinazolin-4-one]	5 to 20	1 to 10	5 to 20
CN1c2ccccc2C(=O)NC1c1n[nH]nc1-c1ccc(OCC(F)(F)F)cc1 (stereo not drawn) [Example 64, 1-Methyl-2-[4-[4-(2,2,2-trifluoroethoxy)phenyl]-2H-1,2,3-triazol-5-yl]-2,3-dihydroquinazolin-4-one]	5 to 20	≥ 10	20 to 50
Cc1cccc2c1NC(c1n[nH]nc1-c1ccc(Br)cc1)NC2=O (stereo not drawn) [Example 66, 2-[4-(4-Bromophenyl)-2H-1,2,3-triazol-5-yl]-8-methyl-2,3-dihydro-1H-quinazolin-4-one]	< 5	≥ 10	5 to 20
